Measurements taken from US20160280699A1, “SUBSTITUTED PHENYLALANINE DERIVATIVES” (BAYER PHARMA AKTIENGESELLSCHAFT, priority 2013, published 2016).
Structures can show the parent of a compound that is named as a salt.

How the values were obtained:
[1] = molecular target: T1, human factor XIa (Homo sapiens, UniProt P03951); assay: Measurement of FXIa inhibition (fluorogenic peptide substrate Boc-Glu(OBzl)-Ala-Arg-AMC); assay type: biochemical; conditions: factor XIa from Kordia, 15 min preincubation, 30 min at 22° C., fluorescence
T1 construct: purchased Kordia
Procedure: The factor XIa inhibition of the substances according to the invention is determined using a biochemical test system which utilizes the reaction of a peptidic factor XIa substrate to determine the enzymatic activity of human factor XIa. Here, factor XIa cleaves from the peptic factor XIa substrate the C-terminal aminomethylcoumarin (AMC), the fluorescence of which is measured. The determinations are carried out in microtitre plates.
Test substances are dissolved in dimethyl sulphoxide and serially diluted in dimethyl sulphoxide (3000 μM to 0.0078 μM; resulting final concentrations in the test: 50 μM to 0.00013 μM). In each case 1 μl of the diluted substance solutions is placed into the wells of white microtitre plates from Greiner (384 wells). Subsequently, the following are added successively: 20 μl of assay buffer (50 mmol/l Tris buffer pH 7.4; 100 mmol/l sodium chloride; 5 mmol/l calcium chloride; 0.1% bovine serum albumin) and 20 μl of factor XIa from Kordia (0.45 nM in assay buffer). After 15 min of incubation, the enzyme reaction is started by addition of 20 μl of the factor XIa substrate Boc-Glu(OBzl)-Ala-Arg-AMC dissolved in assay buffer (10 μM in assay buffer) from Bachem, the mixture is incubated at room temperature (22° C.) for 30 min and fluorescence is then measured (excitation: 360 nm, emission: 460 nm). The measured emissions of the test batches with test substance are compared to those of control batches without test substance (only dimethyl sulphoxide instead of test substance in dimethyl sulphoxide), and IC50 values are calculated from the concentration/activity relationships.

[2] = tested on: human and animal plasma; assay: Determination of anticoagulatory activity: activated partial thromboplastin time (aPTT) in plasma; assay type: biochemical; conditions: concentration of test substance which brings about a 1.5-fold extension of the aPTT, 37° C., C.K. Prest kit
Procedure: The anticoagulatory activity of the test substances is determined in vitro in human and animal plasma (for example mouse, rat, rabbit, pig and dog plasma). To this end, blood is drawn off in a mixing ratio of sodium citrate/blood of 1:9 using a 0.11 molar sodium citrate solution as receiver. Immediately after the blood has been drawn off, it is mixed thoroughly and centrifuged at about 4000 g for 15 minutes. The supernatant is pipetted off.
The activated partial thromboplastin time (aPTT) is determined in the presence of varying concentrations of test substance or the corresponding solvent using a commercial test kit (C.K. Prest from Diagnostica Stago). The test compounds are incubated with the plasma and the PTT reagent (cephalin, kaolin) at 37° C. for 3 minutes. Coagulation is then started by addition of a 25 mM aqueous calcium chloride solution, and the time when coagulation occurs is determined. The concentration of test substance which brings about a 1.5-fold extension of the aPTT is determined Activity data from this test are listed in Table B below: […]

T1 sequence (P03951 388-625 limits assumed): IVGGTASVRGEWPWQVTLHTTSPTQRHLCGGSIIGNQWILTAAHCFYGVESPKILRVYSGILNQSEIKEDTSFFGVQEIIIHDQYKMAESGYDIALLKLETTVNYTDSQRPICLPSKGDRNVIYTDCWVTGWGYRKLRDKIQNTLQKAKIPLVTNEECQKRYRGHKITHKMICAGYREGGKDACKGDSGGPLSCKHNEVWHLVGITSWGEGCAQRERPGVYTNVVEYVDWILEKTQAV
T1 sequence (P03951 19-387 partner limits assumed): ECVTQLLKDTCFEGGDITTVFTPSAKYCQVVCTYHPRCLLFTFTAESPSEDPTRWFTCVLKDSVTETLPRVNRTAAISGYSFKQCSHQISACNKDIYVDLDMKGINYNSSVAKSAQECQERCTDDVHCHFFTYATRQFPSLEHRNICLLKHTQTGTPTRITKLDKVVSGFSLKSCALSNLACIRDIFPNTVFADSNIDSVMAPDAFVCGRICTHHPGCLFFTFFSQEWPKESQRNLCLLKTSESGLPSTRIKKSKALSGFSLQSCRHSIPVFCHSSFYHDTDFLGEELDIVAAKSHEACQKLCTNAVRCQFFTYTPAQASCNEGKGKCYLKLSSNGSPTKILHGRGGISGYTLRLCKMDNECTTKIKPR

Row | Compound | IC50 [1] [nM] | aPTT [2] [µmol/L]
1 | CS(=O)(=O)c1cncc(-c2ccc(C[C@H](NC(=O)[C@H]3CC[C@H](CN)CC3)C(=O)Nc3ccc(-c4nn[nH]n4)cc3)cc2)c1 [Example 39, N-alpha-{[trans-4-(Aminomethyl)cyclohexyl]carbonyl}-4-[5-(methylsulphonyl)pyridin-3-yl]-N-[4-(2H-tetrazol-5-yl)phenyl]-L-phenylalaninamide hydrochloride] | 15 | 0.38
2 | Cc1cc(N2CCNCC2)ncc1-c1ccc(C[C@H](NC(=O)[C@H]2CC[C@H](CN)CC2)C(=O)Nc2ccc(-c3nn[nH]n3)cc2)cc1 [Example 41, N-alpha-{[trans-4-(Aminomethyl)cyclohexyl]carbonyl}-4-[4-methyl-6-(piperazin-1-yl)pyridin-3-yl]-N-[4-(2H-tetrazol-5-yl)phenyl]-L-phenylalaninamide hydrochloride] | 3.2 | 0.06
3 | CN(C)CCCOc1ccc(-c2ccc(C[C@H](NC(=O)[C@H]3CC[C@H](CN)CC3)C(=O)Nc3ccc(-c4nn[nH]n4)cc3)cc2F)cn1 [Example 45, N-alpha-{[trans-4-(Aminomethyl)cyclohexyl]carbonyl}-4-{6-[3-(dimethylamino)propoxy]pyridin-3-yl}-3-fluoro-N-[4-(2H-tetrazol-5-yl)phenyl]-L-phenylalaninamide hydrochloride] | 13 | 0.35
4 | NC[C@H]1CC[C@H](C(=O)N[C@@H](Cc2ccc(-c3ccnc(N4CCOCC4)c3F)cc2)C(=O)Nc2ccc(-c3nn[nH]n3)cc2)CC1 [Example 46, N-alpha-{[trans-4-(Aminomethyl)cyclohexyl]carbonyl}-4-[3-fluoro-2-(morpholin-4-yl)pyridin-4-yl]-N-[4-(2H-tetrazol-5-yl)phenyl]-L-phenylalaninamide hydrochloride] | 3.7 | 0.45
5 | Cc1cc(N2CCNCC2)ncc1-c1ccc(C[C@H](NC(=O)[C@H]2CC[C@H](CN)CC2)C(=O)Nc2ccc(-c3nnc(Cl)[nH]3)cc2)cc1 [Example 48, N-alpha-{[trans-4-(Aminomethyl)cyclohexyl]carbonyl}-N-[4-(3-chloro-4H-1,2,4-triazol-5-yl)phenyl]-4-[4-methyl-6-(piperazin-1-yl)pyridin-3-yl]-L-phenylalaninamide hydrochloride] | 3.5 | 0.11
6 | NC[C@H]1CC[C@H](C(=O)N[C@@H](Cc2ccc(-c3cncc(N)c3)cc2)C(=O)Nc2ccc(-c3nnn[nH]3)cc2)CC1 [Example 49, N-alpha-{[trans-4-(Aminomethyl)cyclohexyl]carbonyl}-4-(5-aminopyridin-3-yl)-N-[4-(1H-tetrazol-5-yl)phenyl]-L-phenylalaninamide hydrochloride] | 3.2 | 0.14
7 | Cc1nc(N)ccc1-c1ccc(C[C@H](NC(=O)[C@H]2CC[C@H](CN)CC2)C(=O)Nc2ccc(-c3nnn[nH]3)cc2)cc1 [Example 51, N-alpha-{[trans-4-(Aminomethyl)cyclohexyl]carbonyl}-4-(6-amino-2-methylpyridin-3-yl)-N-[4-(1H-tetrazol-5-yl)phenyl]-L-phenylalaninamide hydrochloride] | 3.7 | 0.19
8 | NC[C@H]1CC[C@H](C(=O)N[C@@H](Cc2ccc(-c3cncc(S(=O)(=O)NC4CCNCC4)c3)cc2)C(=O)Nc2ccc(-c3nnn[nH]3)cc2)CC1 [Example 52, N-alpha-{[trans-4-(Aminomethyl)cyclohexyl]carbonyl}-4-[5-(piperidin-4-ylsulphamoyl)pyridin-3-yl]-N-[4-(1H-tetrazol-5-yl)phenyl]-L-phenylalaninamide hydrochloride] | 6.9 | 0.21
9 | CN1CCN(c2cc(-c3ccc(C[C@H](NC(=O)C4CCC(CN)CC4)C(=O)Nc4ccc(-c5nnn[nH]5)cc4)cc3)ccn2)CC1 (stereo partly drawn) [Example 53, N-alpha-{[trans-4-(Aminomethyl)cyclohexyl]carbonyl}-4-[2-(4-methylpiperazin-1-yl)pyridin-4-yl]-N-[4-(1H-tetrazol-5-yl)phenyl]-L-phenylalaninamide hydrochloride] | 11 | 0.21
10 | CN1CCN(c2ccc(-c3ccc(C[C@H](NC(=O)C4CCC(CN)CC4)C(=O)Nc4ccc(-c5nnn[nH]5)cc4)cc3)cn2)CC1 (stereo partly drawn) [Example 54, N-alpha-{[trans-4-(Aminomethyl)cyclohexyl]carbonyl}-4-[6-(4-methylpiperazin-1-yl)pyridin-3-yl]-N-[4-(1H-tetrazol-5-yl)phenyl]-L-phenylalaninamide hydrochloride] | 7.2 | 0.21
11 | CN(C)CCCOc1ccc(-c2ccc(C[C@H](NC(=O)C3CCC(CN)CC3)C(=O)Nc3ccc(-c4nnc(Cl)[nH]4)cc3)cc2)cn1 (stereo partly drawn) [Example 56, N-alpha-{[trans-4-(Aminomethyl)cyclohexyl]carbonyl}-N-[4-(3-chloro-4H-1,2,4-triazol-5-yl)phenyl]-4-{6-[3-(dimethylamino)propoxy]pyridin-3-yl}-L-phenylalaninamide hydrochloride] | 9.6 | 0.25
12 | Cc1ccncc1-c1ccc(C[C@H](NC(=O)C2CCC(CN)CC2)C(=O)Nc2ccc(-c3nn[nH]n3)cc2)cc1 (stereo partly drawn) [Example 57, N-alpha-{[trans-4-(Aminomethyl)cyclohexyl]carbonyl}-4-(4-methylpyridin-3-yl)-N-[4-(2H-tetrazol-5-yl)phenyl]-L-phenylalaninamide hydrochloride] | 4.4 | 0.35

Stronger by IC50 [1], values ahead:

Row | IC50 [1] [nM] | Compound | aPTT [2] [µmol/L]
13 | 3 | Cc1nc(N)ncc1-c1ccc(C[C@H](NC(=O)C2CCC(CN)CC2)C(=O)Nc2ccc(-c3nnn[nH]3)cc2)cc1 (stereo partly drawn) [Example 55, N-alpha-{[trans-4-(Aminomethyl)cyclohexyl]carbonyl}-4-(2-amino-4-methylpyrimidin-5-yl)-N-[4-(1H-tetrazol-5-yl)phenyl]-L-phenylalaninamide hydrochloride] | 0.22
14 | 2.6 | NC[C@H]1CC[C@H](C(=O)N[C@@H](Cc2ccc(-c3cnc(N4CCCCC4)nc3O)cc2)C(=O)Nc2ccc(-c3nn[nH]n3)cc2)CC1 [Example 40, N-alpha-{[trans-4-(Aminomethyl)cyclohexyl]carbonyl}-4-[4-hydroxy-2-(piperidin-1-yl)pyrimidin-5-yl]-N-[4-(2H-tetrazol-5-yl)phenyl]-L-phenylalaninamide hydrochloride] | 0.08
15 | 2 | NC[C@H]1CC[C@H](C(=O)N[C@@H](Cc2ccc(-c3ccc(N4CCOCC4)nc3)c(F)c2)C(=O)Nc2ccc(-c3nn[nH]n3)cc2)CC1 [Example 44, N-alpha-{[trans-4-(Aminomethyl)cyclohexyl]carbonyl}-3-fluoro-4-[6-(morpholin-4-yl)pyridin-3-yl]-N-[4-(2H-tetrazol-5-yl)phenyl]-L-phenylalaninamide hydrochloride] | 0.22
16 | 1.8 | NC[C@H]1CC[C@H](C(=O)N[C@@H](Cc2ccc(-c3ccnc(N4CCOCC4)c3Cl)cc2)C(=O)Nc2ccc(-c3nn[nH]n3)cc2)CC1 [Example 43, N-alpha-{[trans-4-(Aminomethyl)cyclohexyl]carbonyl}-4-[3-chloro-2-(morpholin-4-yl)pyridin-4-yl]-N-[4-(2H-tetrazol-5-yl)phenyl]-L-phenylalaninamide hydrochloride] | 0.37
17 | 1.3 | NC[C@H]1CC[C@H](C(=O)N[C@@H](Cc2ccc(-c3cccnc3C(F)(F)F)cc2)C(=O)Nc2ccc(-c3nnn[nH]3)cc2)CC1 [Example 50, N-alpha-{[trans-4-(Aminomethyl)cyclohexyl]carbonyl}-N-[4-(1H-tetrazol-5-yl)phenyl]-4-[2-(trifluoromethyl)pyridin-3-yl]-L-phenylalaninamide hydrochloride] | 0.16
18 | 1.1 | Cc1cc(N2CCNCC2)ncc1-c1ccc(C[C@H](NC(=O)[C@H]2CC[C@H](CN)CC2)C(=O)Nc2ccc(-c3nn[nH]n3)c(F)c2)cc1 [Example 47, N-alpha-{[trans-4-(Aminomethyl)cyclohexyl]carbonyl}-N-[3-fluoro-4-(2H-tetrazol-5-yl)phenyl]-4-[4-methyl-6-(piperazin-1-yl)pyridin-3-yl]-L-phenylalaninamide hydrochloride] | 0.08
